Conditions: Liquid

COC [dimethyl ether]
Conditions | vapor or sublimation pressure [kPa]
213.08 K | 16.46
218.11 K | 22.24
223.15 K | 29.61
228.06 K | 38.64
233.09 K | 49.96
238.11 K | 63.84
243.07 K | 80.36
248.12 K | 100.43
253.12 K | 124.09
258.13 K | 152.4
263.13 K | 184.96
268.13 K | 222.7
273.17 K | 266.5
278.17 K | 316.12
283.16 K | 372.9
288.13 K | 436.69
293.17 K | 509.01
298.08 K | 588.17
298.78 K | 600.51
303.15 K | 679.68
303.78 K | 691.56
308.13 K | 778.92
313.17 K | 889.98
318.16 K | 1011.5
323.17 K | 1144.7
328.16 K | 1290.2
333.17 K | 1449.2
338.17 K | 1621.5
343.16 K | 1809.1
348.16 K | 2012.4
353.16 K | 2232.3
358.16 K | 2468.9
363.16 K | 2723.3
368.14 K | 2996.4
373.14 K | 3291.2
378.15 K | 3608.6
383.15 K | 3948.6
388.16 K | 4313.9
393.16 K | 4706.2

From the NIST ThermoML archive (doi:10.1021/je800375t)
